In patent publication US8309546B2, “Morpholinopurine derivatives” (Daiichi Sankyo Company, Limited, priority 2008, dated 2012):
Several values for one entry are separate records, joined by “and”; a condition that tells them apart may be missing. Identical values can stand only once.

Columns and labels:
[1] = system: human colon cancer cell strain HT29; assay: Cell growth inhibition test (MTT), HT29; format: cell-based; details: HT-29, 72 h, HT29, 3 days culture, read-out: concentration exhibiting anti-cell effect (GI50)
Method in brief: (§1)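 Seed 5000/1000/5000 cells per well (AN3CA/IGROV1/HT29); add compound next day; culture 3 d, 37° C, 5% CO2; MTT 4 h, DMSO, A540. T/C % vs pre-dose baseline; GI50 from bracketing concentrations.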

[2] = system: human ovary cancer cell strain IGROV1; assay: Cell growth inhibition test (MTT), IGROV1; format: cell-based; details: IGROV-1, 72 h, IGROV1, 3 days culture, read-out: concentration exhibiting anti-cell effect (GI50)
Method in brief: as §1

PI3Kα = PI3Kα (Homo sapiens, UniProt P42336); assay: PI3K kinase activity inhibition assay; format: biochemical; details: Kinase-Glo Plus ATP detection, read-out: IC50 against PI3K
Method in brief: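 PI3Kα (50 nM solution) was reacted with 30 μM ATP and 45 μM PIP2 solutions, each in HEPES pH 7.4 with MgCl2 and DTT, for 2 h at room temperature. Remaining ATP was measured by Kinase-Glo Plus luminescence, and inhibition was derived from ATP consumed. IC50 was taken from curve fitting of the serial dilutions.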

[3] = system: human endometrial cancer cell strain AN3CA; assay: Cell growth inhibition test (MTT), AN3CA; format: cell-based; details: AN3-CA, 72 h, 3 days culture, read-out: concentration exhibiting anti-cell effect (GI50)
Method in brief: as §1

[4] = system: human endometrial cancer cell strain AN3CA tumor; assay: Anti-tumor effect assay using mouse subcutaneous transplantation model; format: in vivo, female nude mouse; details: AN3-CA, oral, tumor weight vs negative control, read-out: Anti-tumor effect (tumor growth inhibition rate)
Experimental: A tumor section was prepared from a human endometrial cancer cell strain AN3CA tumor mass formed in a female nude mouse as a subcutaneously transplanted tumor and then a xenograft model was prepared by transplanting the tumor section into female nude mouse. Tumor-bearing mice having an estimated tumor volume (long diameter×short diameter×short diameter/2) of 80 to 200 mm^3 were divided, so that there should be no significant difference in the mean estimated tumor volume and body weight as compared with the negative control group to perform a test. The test compound was orally administered at a predetermined dose for 8 consecutive days. On the following day of the final administration day, tumor-bearing mice were anesthetized and exsanguinated to death and a tumor mass was isolated to measure tumor weight (the compounds of Examples 1, 3, 6, 8, 11, 12, and 14). Furthermore, as a similar test, the test compound was orally administered for 5 consecutive days, animals were sacrificed on the final administration day, and tumor weight was measured (the compounds of Examples 60, 63, 75, 77, 79, 89, 92, 107, 108, 109, 110, and 127).
In all the tests, anti-tumor effect was calculated by the following formula. {1−(tumor weight in compound treatment group/tumor weight in negative control group)}×100

[5] = molecular target: T1, human mTOR (His-tagged mTOR (1362C)) (Homo sapiens, UniProt P42345); assay: mTOR kinase activity inhibition assay; format: biochemical; details: HTRF, read-out: IC50 against mTOR
T1 construct: the 1362 to 2549 amino acid portion on the C terminus side of human mTOR; His tag (N); made in house
Method in brief: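 Crude His-tagged mTOR (aa 1362–2549) from stable HEK293 cells, with 8 μg/ml biotinylated peptide in 50 mM HEPES pH 7.5, 20 mM MnCl2; compound diluted in 20 μM ATP solution, reaction 3 h at room temperature. Phospho-peptide detected by HTRF (anti-phospho-S6K Thr389 cryptate/streptavidin-XL665, overnight at 4°C), 665/620 nm ratio. IC50 derived from curve fit of % inhibition.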

[6] = system: S6 (serine 235 and 236) phosphorylation in AN3CA tumor; assay: S6 phosphorylation inhibition assay in xenograft; format: in vivo, female nude mouse; details: Mus musculus, AN3-CA, oral, 6 hr after dosing
Experimental: (§2) A tumor section was prepared from a human endometrial cancer cell strain AN3CA tumor mass formed in a female nude mouse as subcutaneously transplanted tumor and a xenograft model was prepared by subcutaneously transplanting the tumor to a female nude mouse. The test compound at a predetermined concentration was orally administered. After a predetermined time, the anesthetized mouse was exsanguinated to death, and a tumor mass was isolated. The tumor mass was crushed using a lysis buffer containing inhibitors of proteases and dephosphorylating enzymes (Cell Signaling Technology, Inc.) and the supernatant was separated by centrifugation to obtain a tumor extract. The protein content of the tumor extract was measured using DC Protein Assay Kit (Bio-Rad Laboratories, Inc.) and phosphorylation conditions of Akt (threonine 308) and S6 (serine 235 and 236) were analyzed by a usual technique of western blotting using tumor extracts containing the same amount of protein. The primary antibody and the secondary antibody used for detecting each molecule were rabbit anti-phospho-Akt(T308) antibody and HRP-labeled goat anti-rabbit IgG antibody or mouse anti-phospho-S6(S235/236) antibody and HRP-labeled sheep anti-mouse IgG antibody.
(§3) The signal intensity detected using an image analyzer Typhoon 9400 (GE Healthcare) was quantified, and the phosphorylation inhibition rate (%) was calculated by the following formula. Phosphorylation inhibitory activity (%) of Akt and S6 after treatment with test compound=100−100×(B/A) A: Signal intensity derived from phosphorylated protein in tumor mass isolated from mouse untreated with test compound B: Signal intensity derived from phosphorylated protein in tumor mass isolated from mouse treated with test compound

[7] = system: Akt (threonine 308) phosphorylation in AN3CA tumor; assay: Akt phosphorylation inhibition assay in xenograft; format: in vivo, female nude mouse; details: Mus musculus, AN3-CA, oral, 6 hr after dosing
Experimental: as §2, §3

T1 sequence (P42345 1362-2549): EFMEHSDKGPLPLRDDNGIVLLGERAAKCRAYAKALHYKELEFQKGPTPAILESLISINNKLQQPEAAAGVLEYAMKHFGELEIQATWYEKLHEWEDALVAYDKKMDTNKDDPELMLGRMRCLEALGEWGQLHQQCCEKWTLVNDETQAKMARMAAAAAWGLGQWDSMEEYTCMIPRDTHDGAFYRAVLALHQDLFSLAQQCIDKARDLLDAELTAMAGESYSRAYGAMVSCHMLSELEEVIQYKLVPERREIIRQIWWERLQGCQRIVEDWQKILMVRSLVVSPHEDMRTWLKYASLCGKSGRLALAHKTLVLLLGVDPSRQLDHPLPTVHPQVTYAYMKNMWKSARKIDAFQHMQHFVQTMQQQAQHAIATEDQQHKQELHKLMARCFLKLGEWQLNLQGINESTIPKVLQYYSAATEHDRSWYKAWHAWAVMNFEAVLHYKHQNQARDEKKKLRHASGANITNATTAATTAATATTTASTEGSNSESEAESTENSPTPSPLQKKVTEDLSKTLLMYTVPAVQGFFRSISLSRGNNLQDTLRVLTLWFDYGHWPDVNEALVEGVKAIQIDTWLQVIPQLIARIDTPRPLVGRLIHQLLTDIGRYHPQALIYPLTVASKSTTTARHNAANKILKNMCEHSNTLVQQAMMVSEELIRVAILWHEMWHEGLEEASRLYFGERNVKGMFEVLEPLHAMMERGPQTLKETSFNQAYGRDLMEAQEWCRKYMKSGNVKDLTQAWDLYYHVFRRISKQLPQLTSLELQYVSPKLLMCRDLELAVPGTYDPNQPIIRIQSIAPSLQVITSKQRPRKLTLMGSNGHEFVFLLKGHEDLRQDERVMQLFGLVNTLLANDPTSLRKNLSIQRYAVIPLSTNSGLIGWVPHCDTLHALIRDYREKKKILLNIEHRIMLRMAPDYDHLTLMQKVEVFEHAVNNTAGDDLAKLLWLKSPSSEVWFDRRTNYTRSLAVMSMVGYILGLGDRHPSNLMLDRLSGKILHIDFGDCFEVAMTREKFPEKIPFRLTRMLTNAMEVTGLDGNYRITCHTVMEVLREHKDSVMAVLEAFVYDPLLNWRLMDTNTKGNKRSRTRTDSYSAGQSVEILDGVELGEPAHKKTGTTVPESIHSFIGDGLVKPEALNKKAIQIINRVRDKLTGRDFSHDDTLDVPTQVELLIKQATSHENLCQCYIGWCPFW
Chain of PI3Kα (P42336 whole entry, species assumed): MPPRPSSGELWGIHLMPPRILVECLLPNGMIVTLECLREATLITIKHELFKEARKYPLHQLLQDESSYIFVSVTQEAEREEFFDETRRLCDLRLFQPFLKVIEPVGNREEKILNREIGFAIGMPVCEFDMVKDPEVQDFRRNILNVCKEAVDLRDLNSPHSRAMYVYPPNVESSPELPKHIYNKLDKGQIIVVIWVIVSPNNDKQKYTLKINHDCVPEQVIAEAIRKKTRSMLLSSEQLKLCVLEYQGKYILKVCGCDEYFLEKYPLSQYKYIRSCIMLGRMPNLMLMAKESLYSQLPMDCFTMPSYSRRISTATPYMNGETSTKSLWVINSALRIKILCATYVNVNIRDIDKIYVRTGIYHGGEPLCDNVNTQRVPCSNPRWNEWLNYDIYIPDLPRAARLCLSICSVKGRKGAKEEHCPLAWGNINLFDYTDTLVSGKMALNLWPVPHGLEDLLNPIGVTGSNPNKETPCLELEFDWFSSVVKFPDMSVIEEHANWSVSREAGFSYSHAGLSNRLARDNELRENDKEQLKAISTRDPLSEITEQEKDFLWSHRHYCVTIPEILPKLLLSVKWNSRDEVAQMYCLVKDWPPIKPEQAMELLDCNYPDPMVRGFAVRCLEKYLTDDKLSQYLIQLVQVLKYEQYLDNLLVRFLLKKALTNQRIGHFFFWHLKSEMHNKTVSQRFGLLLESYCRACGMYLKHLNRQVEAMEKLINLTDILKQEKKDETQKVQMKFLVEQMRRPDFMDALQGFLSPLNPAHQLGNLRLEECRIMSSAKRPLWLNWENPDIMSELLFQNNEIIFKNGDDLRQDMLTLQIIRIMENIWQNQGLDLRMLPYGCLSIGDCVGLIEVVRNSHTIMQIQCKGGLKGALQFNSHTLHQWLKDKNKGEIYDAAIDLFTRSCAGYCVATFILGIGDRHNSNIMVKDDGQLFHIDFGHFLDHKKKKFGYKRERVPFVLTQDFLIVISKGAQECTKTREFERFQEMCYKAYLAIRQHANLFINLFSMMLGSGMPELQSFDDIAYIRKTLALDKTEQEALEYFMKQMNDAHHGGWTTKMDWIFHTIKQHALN
Chain of PI3Kα (P27986 whole entry partner, species assumed): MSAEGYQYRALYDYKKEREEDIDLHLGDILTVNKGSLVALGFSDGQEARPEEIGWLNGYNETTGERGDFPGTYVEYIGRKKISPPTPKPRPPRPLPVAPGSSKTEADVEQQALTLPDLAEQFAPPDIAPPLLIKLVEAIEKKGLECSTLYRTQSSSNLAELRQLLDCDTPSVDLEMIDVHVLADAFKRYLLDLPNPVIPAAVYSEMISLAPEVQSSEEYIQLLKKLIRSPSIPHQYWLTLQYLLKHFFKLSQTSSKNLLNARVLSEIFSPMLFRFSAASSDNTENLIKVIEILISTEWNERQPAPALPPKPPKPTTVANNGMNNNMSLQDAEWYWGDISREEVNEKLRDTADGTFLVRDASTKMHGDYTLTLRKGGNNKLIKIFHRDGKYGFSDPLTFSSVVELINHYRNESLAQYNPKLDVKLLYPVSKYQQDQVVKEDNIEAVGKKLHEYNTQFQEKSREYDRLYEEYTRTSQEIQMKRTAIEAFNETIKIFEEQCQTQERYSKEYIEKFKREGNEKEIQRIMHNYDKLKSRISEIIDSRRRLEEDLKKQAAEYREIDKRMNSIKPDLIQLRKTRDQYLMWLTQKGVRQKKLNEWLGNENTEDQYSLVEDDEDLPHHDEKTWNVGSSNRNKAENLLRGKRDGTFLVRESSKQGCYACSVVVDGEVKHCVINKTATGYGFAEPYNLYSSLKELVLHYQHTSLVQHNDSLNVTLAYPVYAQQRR

Structure (SMILES) | GI50 [1] [µM] | GI50 [2] [µM] | IC50 (PI3Kα) | GI50 [3] [µM] | inhibition in vivo at 10 mg/kg/day ([4]; 10 mg/kg/day, 8 or 5 consecutive days depending on compound) [%] | inhibition in vivo at 20 mg/kg/day ([4]; 20 mg/kg/day, consecutive days) [%] | IC50 [5] [µM] | inhibition at 10 mg/kg [6] [%] | inhibition at 10 mg/kg [7] [%]
C[C@@H]1CN(c2nc3c(N4CCOCC4)nc(-c4cnc(N)nc4)nc3n2CC2CC2)C[C@H](C)N1 [Example 12, 5-{9-(Cyclopropylmethyl)-8-(cis-3,5-dimethylpiperazin-1-yl)-6-morpholin-4-yl-9H-purin-2-yl}pyrimidin-2-amine] | ≤ 5 | ≤ 5 | 0.01 to 0.02 µM and 0.02 to 0.05 µM | ≤ 5 | 61 | 71 | – | – | –
CC1(C)CN(c2nc3c(N4CCOCC4)nc(-c4cnc(N)nc4)nc3n2CC(F)(F)F)CCN1C(=O)CO [Example 123] | ≤ 5 | ≤ 5 | 0.01 to 0.02 µM | ≤ 5 | – | – | < 0.01 | – | –
CC(O)C(=O)N1[C@H](C)CN(c2nc3c(N4CCOCC4)nc(-c4cnc(N)nc4)nc3n2CC(F)(F)F)C[C@@H]1C (stereo partly drawn) [Example 124, 1-{4-[2-(2-Aminopyrimidin-5-yl)-6-morpholin-4-yl-9-(2,2,2-trifluoroethyl)-9H-purin-8-yl]-cis-2,6-dimethylpiperazin-1-yl}-1-oxopropan-2-ol] | ≤ 5 | ≤ 5 | 0.01 to 0.02 µM | ≤ 5 | – | – | < 0.01 | – | –
C[C@H]1CN(c2nc3c(N4CCOCC4)nc(-c4cnc(N)nc4)nc3n2CC(F)(F)F)CCN1C(=O)CO [Example 125, 2-{(2S)-4-[2-(2-Aminopyrimidin-5-yl)-6-morpholin-4-yl-9-(2,2,2-trifluoroethyl)-9H-purin-8-yl]-2-methylpiperazin-1-yl}-2-oxoethanol] | ≤ 5 | ≤ 5 | < 0.01 µM | ≤ 5 | – | – | < 0.01 | – | –
C[C@@H]1CN(c2nc3c(N4CCOCC4)nc(-c4cnc(N)nc4)nc3n2CC(F)(F)F)CCN1C(=O)CO [Example 126, 2-{(2R)-4-[2-(2-Aminopyrimidin-5-yl)-6-morpholin-4-yl-9-(2,2,2-trifluoroethyl)-9H-purin-8-yl]-2-methylpiperazin-1-yl}-2-oxoethanol] | ≤ 5 | ≤ 5 | < 0.01 µM | ≤ 5 | – | – | < 0.01 | – | –
CC(C)Cn1c(N2CCN(C(=O)C[C@H](C)O)CC2)nc2c(N3CCOC[C@@H]3C)nc(-c3cnc(N)nc3)nc21 [Example 133, (2S)-4-(4-[2-(2-Aminopyrimidin-5-yl)-9-isobutyl-6-[(3S)-3-methylmorpholin-4-yl]-9H-purin-8-yl]piperazin-1-yl)-4-oxobutan-2-ol] | ≤ 5 | ≤ 5 | < 0.01 µM | ≤ 5 | – | – | – | > 90 | > 60
